Where two headings read alike, the source gives them in different places.
Experiments:
TLR9 = target: T1, TLR9 (Mus musculus, UniProt Q9EQU3); test: TLR9 inhibition, TNF-α secretion (ELISA) in RAW 264.7; format: cell-based; conditions: for TLR9 TI value: therapeutic index, RAW 264.7
T1 construct: endogenous in cells; host or cells: RAW 264.7
T1 sequence (Q9EQU3 26-1032): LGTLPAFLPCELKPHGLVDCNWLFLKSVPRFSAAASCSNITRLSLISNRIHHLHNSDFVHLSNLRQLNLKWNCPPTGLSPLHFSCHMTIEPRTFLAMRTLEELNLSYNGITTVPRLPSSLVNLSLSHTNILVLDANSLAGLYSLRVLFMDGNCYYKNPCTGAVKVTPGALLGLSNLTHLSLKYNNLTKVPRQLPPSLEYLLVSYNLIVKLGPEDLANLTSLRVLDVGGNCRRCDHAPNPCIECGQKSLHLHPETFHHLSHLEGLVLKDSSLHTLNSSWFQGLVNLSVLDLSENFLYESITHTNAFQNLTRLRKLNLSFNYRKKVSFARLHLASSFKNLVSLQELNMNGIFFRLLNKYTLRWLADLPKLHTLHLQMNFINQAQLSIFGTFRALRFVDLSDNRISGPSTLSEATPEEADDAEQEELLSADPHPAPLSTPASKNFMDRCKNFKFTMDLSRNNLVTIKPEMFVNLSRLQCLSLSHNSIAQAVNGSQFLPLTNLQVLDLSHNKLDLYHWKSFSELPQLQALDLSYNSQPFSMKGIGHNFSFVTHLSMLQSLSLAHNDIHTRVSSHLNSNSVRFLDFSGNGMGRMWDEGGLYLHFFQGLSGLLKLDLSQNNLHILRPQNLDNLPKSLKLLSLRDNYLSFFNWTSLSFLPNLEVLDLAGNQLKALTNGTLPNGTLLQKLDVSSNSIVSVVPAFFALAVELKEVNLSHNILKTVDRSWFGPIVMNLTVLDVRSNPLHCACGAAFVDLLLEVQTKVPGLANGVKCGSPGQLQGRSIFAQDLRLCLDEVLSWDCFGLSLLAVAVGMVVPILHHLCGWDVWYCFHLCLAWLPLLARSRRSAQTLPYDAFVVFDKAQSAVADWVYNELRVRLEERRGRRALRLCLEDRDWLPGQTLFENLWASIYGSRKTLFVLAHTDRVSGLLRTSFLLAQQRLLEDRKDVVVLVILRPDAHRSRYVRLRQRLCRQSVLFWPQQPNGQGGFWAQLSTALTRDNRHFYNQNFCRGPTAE
Description: (§1) RAW 264.7 and differentiated THP-1 cells were seeded into 96-well plates at 2 × 10^4 cells per well, while Daudi cells were seeded at 5 × 10^4 cells per well. After stabilization for 30 min, cells were stimulated with specific TLR agonists for 4 or 24 h. Supernatants were diluted and transferred to precoated ELISA plates to measure TNF-α secretion using kits from Invitrogen. Optical absorbance was measured using a BioTek Synergy HTX multimode microplate reader, and data were interpolated using BioTek Gen5 software.
(§2) One-tailed paired Student’s t-tests were performed using Microsoft Excel (Microsoft). Semi-logarithmic conversions and nonregression curve analyses for calculating 50% lethal concentration (LC50) and 50% inhibitory concentration (IC50) values were conducted using GraphPad Prism 7.0 (GraphPad). The therapeutic index was calculated as […]. Animal experimental results are expressed as mean ± standard deviation and analyzed using SPSS v.20 (IBM SPSS Statistics). Homogeneity of variance was assessed using Levene’s test.
The cells were activated with agonistic ligands: […], TLR3 (poly I:C, 2 μg/ml, 24 h), TLR4 (LPS, 10 or 100 ng/ml, 4 h), TLR5 (FLA-ST, 500 ng/ml, 4 h), TLR7 (ORN06/LyoVec, 2 μg/ml, 24 h; and IMQ, 1 μg/ml, 4 h), TLR8 (TL8-506, 2 μg/ml, 24 h) and TLR9 (ODN2395, 1 μM, 4 h) at various concentrations in RAW 264.7 cells, human Daudi cells and THP-1 cells. Data are from at least three independent experiments (n = 3) and statistical differences between the induced case and other cases were analyzed and verified using a one-tailed Student’s t-test (*P < 0.05, **P < 0.01, ***P < 0.001).

SLE in MRL/lpr mice = test: MRL/lpr mouse model of SLE; format: in vivo; conditions: 30 mg/kg oral daily for 39 days; for Anti-dsDNA antibodies / Antinuclear antibody (ANA) / IgG in the kidney: compared with HCQ 60 mg/kg; for Alopecia and skin rashes: compared with vehicle and HCQ
Description: MRL/MpJ-Fas^lpr/J lupus-prone mice were purchased from Jackson Laboratory to evaluate the effects of ETI41 and ETI60 on the pathophysiology of genetic SLE. This study was approved by the IACUC, Ajou University (approval no. 2019-0046). Fourteen-week-old mice were assigned to the following treatment groups: vehicle (n = 3), ETI60 (n = 3), ETI41 (n = 4) and HCQ (n = 3). These groups were administered daily oral doses of 30 mg/kg ETI41 or ETI60, or 60 mg/kg HCQ for 39 days. All compounds were dissolved in a vehicle comprising ethanol, polyethylene glycol (PEG400) and distilled water at a 1:4:5 ratio. The body weights of the mice were measured every 3 days. Mice were anesthetized in an induction chamber with a gas mixture of 4% isoflurane in 70:30 […] and O2, delivered at a flow rate of 0.8 l/min. Upon completion of the treatment period, paired axillary and popliteal lymph nodes were collected and weighed. Blood samples were taken and maintained in BD Microtainer SST tubes (BD Biosciences), with serum isolated through centrifugation at 3,393g for 30 min at 4 °C. Serum markers, including complement component C3, ANA, anti-dsDNA and total IgG, were evaluated using ELISA kits (MyBioSource). Renal IgG levels were monitored by western blotting using anti-mouse IgG (Thermo Fisher Scientific) and β-actin antibodies (Bethyl Laboratories). Statistical significance among groups was analyzed using IBM SPSS Statistics (v.25.0; IBM Corporation), with statistical significance set at P < 0.05.
Fig. 5 Therapeutic efficacy of ETI41 and ETI60 in SLE mouse model. a Summary of the experimental validation of ETI41 and ETI60 in the MRL/lpr female mouse model of SLE. […] Statistical differences between the induced case and other cases were analyzed and verified using a one-tailed Student’s t-test (*P < 0.05, **P < 0.01, ***P < 0.001).

endosomal TLRs = test: Endosomal TLR-mediated TNF-α production, summary over cell lines; format: cell-based; conditions: dose-dependent, without inducing cytotoxic effects
Description: as §1
TLR activation triggers the NF-κB pathway, resulting in increased production of pro-inflammatory cytokines, such as TNF-α and IL-6.

hTLR7 = target: T2, hTLR7 (Homo sapiens, UniProt Q9NYK1); test: TLR7 inhibition, R848-induced hTNFα in Daudi; format: cell-based
T2 construct: human B lymphoblasts (Daudi cells); endogenous in cells; host or cells: Daudi
Description: as §1, §2
[…] Data are from at least three independent experiments (n = 3) and statistical differences between the induced case and other cases were analyzed and verified using a one-tailed Student’s t-test (*P < 0.05, **P < 0.01, ***P < 0.001).

T2 sequence (Q9NYK1 27-1049): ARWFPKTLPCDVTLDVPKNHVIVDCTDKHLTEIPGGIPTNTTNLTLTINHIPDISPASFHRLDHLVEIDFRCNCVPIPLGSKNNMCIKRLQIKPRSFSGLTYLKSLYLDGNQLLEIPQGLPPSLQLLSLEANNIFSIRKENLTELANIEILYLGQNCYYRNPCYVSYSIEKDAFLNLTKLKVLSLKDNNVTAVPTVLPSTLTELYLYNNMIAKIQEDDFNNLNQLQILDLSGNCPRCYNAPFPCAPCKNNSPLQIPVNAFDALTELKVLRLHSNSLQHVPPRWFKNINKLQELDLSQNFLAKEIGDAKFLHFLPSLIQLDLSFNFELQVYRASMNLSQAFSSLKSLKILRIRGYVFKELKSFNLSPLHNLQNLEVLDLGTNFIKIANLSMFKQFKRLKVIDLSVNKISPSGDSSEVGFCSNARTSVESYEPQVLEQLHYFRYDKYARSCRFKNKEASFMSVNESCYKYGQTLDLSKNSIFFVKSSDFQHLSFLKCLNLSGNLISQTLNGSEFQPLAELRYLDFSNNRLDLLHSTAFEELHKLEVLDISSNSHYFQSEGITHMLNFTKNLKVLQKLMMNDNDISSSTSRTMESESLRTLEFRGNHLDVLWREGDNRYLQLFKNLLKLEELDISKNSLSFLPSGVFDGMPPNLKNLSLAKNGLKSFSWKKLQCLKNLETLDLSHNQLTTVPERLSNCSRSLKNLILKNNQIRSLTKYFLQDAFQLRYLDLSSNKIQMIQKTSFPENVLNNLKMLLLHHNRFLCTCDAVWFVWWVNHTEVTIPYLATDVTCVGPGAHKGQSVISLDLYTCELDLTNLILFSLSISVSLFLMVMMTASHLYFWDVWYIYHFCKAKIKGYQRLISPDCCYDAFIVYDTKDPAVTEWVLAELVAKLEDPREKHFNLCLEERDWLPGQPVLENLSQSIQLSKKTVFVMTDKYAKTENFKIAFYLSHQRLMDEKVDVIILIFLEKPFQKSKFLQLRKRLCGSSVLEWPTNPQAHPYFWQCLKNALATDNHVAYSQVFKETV

In the case of `Cc1cc2c(N)c3c(nc2n1CCCN(C)C)CCCCCC3` [ETI41], the IC50 (TLR9) is reported as 160 nM, the “TLR9 TI value” (TLR9) is reported as 419.88 and the Body weight (SLE in MRL/lpr mice) is reported as “prevented weight gain or loss”. For the same molecule, the Lymph node weights (SLE in MRL/lpr mice) was “notably lower”, the Anti-dsDNA antibodies (SLE in MRL/lpr mice) was “reduced” and the “Antinuclear antibody (ANA)” value (SLE in MRL/lpr mice) was “reduced”. For the same molecule, the “IgG in the kidney” value (SLE in MRL/lpr mice) was “reduced”, the “Alopecia and skin rashes” value (SLE in MRL/lpr mice) was “substantially reduced” and the “TNF-α production by RAW 264.7 and Daudi cells” value (endosomal TLRs) was “effectively inhibited”. It also gave an IC50 (hTLR7) of 947 nM.

`COc1ccc2c3c(N)c4c(nc3n(CCCN(C)C)c2c1)CCCC4` [ETI60] was tested, and the IC50 (TLR9; RAW 264.7 cell line, read-out: TLR9 IC50 (mTNFα)) was 120 nM, the “TLR9 TI value” (TLR9) was 422.71 and the Body weight (SLE in MRL/lpr mice) was “prevented weight gain or loss”. The Lymph node weights (SLE in MRL/lpr mice) was “notably lower”, the “Complement C3 levels” value (SLE in MRL/lpr mice; serum) was “increased” and the Anti-dsDNA antibodies (SLE in MRL/lpr mice) was “reduced”. For the same molecule, the “Antinuclear antibody (ANA)” value (SLE in MRL/lpr mice) was “reduced”, the “IgG in the kidney” value (SLE in MRL/lpr mice) was “reduced” and the “Alopecia and skin rashes” value (SLE in MRL/lpr mice) was “substantially reduced”. For the same molecule, the “TNF-α production by RAW 264.7 and Daudi cells” value (endosomal TLRs) was “effectively inhibited” and the IC50 (hTLR7) was 668 nM.

Source: publication PMC12508057, “Discovery of ETI41 and ETI60: novel selective endosomal Toll-like receptor inhibitors for the treatment of autoimmune diseases” (Experimental & Molecular Medicine, 2025)
